Data from patent US20120178720A1, “Bisphosphonates as Inhibitors of Acid Sphingomyelinase” (priority 2009, published 2012).
Read-outs that look alike come from different tables or passages of the source.

Columns and labels:
aSMase = biological target: T1, aSMase (Rattus norvegicus, UniProt F7ETC0); assay: fluorescent aSMase assay with HMU-PC substrate; type: biochemical; conditions: for IC50: read-out: IC50 inhibition of aSMase
T1 construct: Crude preparations containing aSMase or nSMase were made from stripped rat brains; from tissue; host or cells: rat brain
T1 sequence (F7ETC0 1-626): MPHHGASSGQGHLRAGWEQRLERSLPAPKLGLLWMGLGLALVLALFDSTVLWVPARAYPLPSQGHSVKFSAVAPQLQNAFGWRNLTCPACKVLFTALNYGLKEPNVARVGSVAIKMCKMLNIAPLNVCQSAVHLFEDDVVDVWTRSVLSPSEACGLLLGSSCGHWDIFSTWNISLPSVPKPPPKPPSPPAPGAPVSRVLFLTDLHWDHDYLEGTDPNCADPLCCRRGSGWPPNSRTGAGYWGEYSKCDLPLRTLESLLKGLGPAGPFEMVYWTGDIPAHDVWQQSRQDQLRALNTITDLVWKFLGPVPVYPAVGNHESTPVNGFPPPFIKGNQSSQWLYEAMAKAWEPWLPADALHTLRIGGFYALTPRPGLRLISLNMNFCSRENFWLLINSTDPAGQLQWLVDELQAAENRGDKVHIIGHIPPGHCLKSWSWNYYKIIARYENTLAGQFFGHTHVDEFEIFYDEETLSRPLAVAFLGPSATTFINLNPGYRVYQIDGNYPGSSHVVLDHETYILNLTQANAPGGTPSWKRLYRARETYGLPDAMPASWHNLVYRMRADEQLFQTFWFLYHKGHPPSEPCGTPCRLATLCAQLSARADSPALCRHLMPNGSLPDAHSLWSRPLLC
Protocol: Enzyme assays: Crude preparations containing aSMase or nSMase were made from stripped rat brains, as described before. […] The fluorescent aSMase assay was performed in a 384-well-plate using the HMU-PC (6-Hexadecanoylamino-4-methylumbelliferyl-phosphorylcholine) substrate. Reaction mixtures consisted of 13.3 μL HMU-PC, 13.3 μL reaction-buffer (100 mM NaOAc, pH 5.2, 0.2% (w/v) Na—TC, […], 0.2% (v/v) Triton X-100) and 13.3 μL enzyme preparation. Inhibitors were added in various concentrations and the reactions were incubated for 3 hours at 37° C. in a plate reader (FLUOstar OPTIMA, BMG labtech). The fluorescence of HMU (6-Hexadecanoylamino-4-methylumbelliferone) was measured (excitation 380 nm, emission 460 nm) in real time. Assays using the radio-labelled sphingomyelin gave the same results.

[1] = test system: isolated, ventilated and perfused rat lungs; conditions: 10 μM; cited from earlier work
[2] = test system: α-galactosidase A (α-Gal A); conditions: sub-inhibitory intracellular concentrations; cited from earlier work
[3] = read-out: Inhibition [%] at 20 μM (aSMase, initial phosphonate collection)
[4] = read-out: Inhibition [%] at 20 μM (aSMase, initial bisphosphonate collection)

Structure (SMILES)	IC50 (aSMase) [µM]	inhibition at 20 µM (aSMase; [4]) [%]	other results
CCCCCCCCCC(OP(=O)(O)O)P(=O)(O)O (centres unmarked) [Compound 17, Decyl-1,1-phosphate phosphonate]	0.35 ± 0.06	–	activity towards aSMase (aSMase): as active as its bisphosphonate analogue 15b
O=P(O)(O)CN(CCN(CP(=O)(O)O)CP(=O)(O)O)CCN(CP(=O)(O)O)CP(=O)(O)O [Compound 5]	–	–	inhibition at 20 µM (aSMase; [3]): -5%
NCCCCCC(O)(P(=O)(O)O)P(=O)(O)O [Compound 6]	–	54	–
CCCCP(=O)(O)O [Compound 2]	–	–	inhibition at 20 µM (aSMase; [3]): 2%
CCCCCC(N(C)C)(P(=O)(O)O)P(=O)(O)O [Compound 19a]	9.5 ± 4	–	–
C=CCN(CC=C)C(P(=O)(O)O)P(=O)(O)O [Compound 11]	–	32	–
O=P(O)(O)C(Nc1ccccc1)P(=O)(O)O [Compound 10]	–	8	–
CC(NCC(=O)O)(P(=O)(O)O)P(=O)(O)O [Compound 8]	–	62	–
O=P(O)(O)C(N(CO)CO)P(=O)(O)O [Compound 13]	–	36	–
CC(C)CN(CC(C)C)C(P(=O)(O)O)P(=O)(O)O [Compound 12]	–	2	–
CCCCCCCCCC(OP(=O)(OC)OC)P(=O)(OC)OC (centres unmarked) [Compound 16, Decyl-1-dimethylphosphate-1-dimethylphosphohonate]	> 100	–	activity towards aSMase (aSMase): totally inactive
CCCCCCCCCC(N(C)C)(P(=O)(O)O)P(=O)(O)O [Compound 19b, 1-dimethylaminodecyl-1,1-bisphosphonicacid]	0.18 ± 0.03	–	–
O=P(O)(O)CN(CP(=O)(O)O)CP(=O)(O)O [Compound 4]	–	–	inhibition at 20 µM (aSMase; [3]): 0%
O=P(O)(O)C(O)(Cn1ccnc1)P(=O)(O)O [Compound 20, zoledronic acid, reference compound]	5.08 ± 0.74	–	–
NC(CP(=O)(O)O)P(=O)(O)O (centres unmarked) [Compound 3]	–	–	inhibition at 20 µM (aSMase; [3]): 47%
CCCCNC(P(=O)(O)O)P(=O)(O)O [Compound 9]	–	76	–
CN(C)CCCN1c2ccccc2CCc2ccccc21 [imipramine]	–	–	attenuation of PAF-induced oedema formation [1]: attenuated but not completely prevented oedema formation
CCCCCC(N)(P(=O)(O)O)P(=O)(O)O [Compound 7a]	4.66 ± 1.07	92	–
CCCCCCCC(N)(P(=O)(O)O)P(=O)(O)O [Compound 7b]	0.04 ± 0.01	93	aSMase inhibitory potency relative to PtdIns-3,5P2 (aSMase): about one order of magnitude more potent than PtdIns-3,5P2
CN(C)C(P(=O)(O)O)P(=O)(O)O [Compound 14]	–	24	–
OC[C@H]1NC[C@H](O)[C@@H](O)[C@H]1O [DGJ, 1-deoxy-galactonojirimycin]	–	–	stimulation of α-Gal A in cells [2]: seven- to eight-fold
